# Source: US20110301222A1, “COMBINATION THERAPY FOR THE TREATMENT OF CANCER” (Isis Pharmaceuticals, Inc., priority 2008, published 2011)
# Marks after values point to notes of the source that are not given here. In the oligonucleotide strings, read from the 5' end, every base follows the letter of its sugar. An asterisk marks phosphorothioate; unmarked linkages are phosphodiester. Other units and linkages are bracketed, terminal groups are in braces. A string of capitals states the bases alone. e = 2'-O-(2-methoxyethyl) (MOE); [5mC] = 5-methylcytosine; d = 2'-deoxy (DNA)
# Tests used:
# Format in all cases: in vivo, athymic nude mice
# [1] = test system: A549 Non-Small Cell Lung Cancer Xenograft; test: A549 non-small cell lung cancer xenograft tumor volume in mice; settings: for Mean Tumor Volume: ASO 50 mg/kg i.v., docetaxel 10 mg/kg IP once weekly, from 8 days after first ASO dose; for Percent Reduction in Mean Tumor Volumes (observed): NSCLC A549, Day 50, vs. vehicle control, negative = reduction, docetaxel 10 mg/kg
# Procedure: (§1) To determine whether the eIF-4E ASO complements or enhances the activity of docetaxel, the effect of the combined use of the eIF-4E ASO and docetaxel on tumor volume in 3 human xenograft cancer models is studied as follows.
# (§2) Xenograft studies are carried out as described in Graff et al. (2005) Cancer Res. 65:7462-7469. Five million human cancer cells representing non-small cell lung cancer (line A549; ATCC, accession no. CCL-185), hormone refractory prostate cancer (line PC-3; ATCC, accession no. CRL-1435), and ER-/PR-HER2-breast cancer (line MDA-231; ATCC, accession no. HTB-26) are injected subcutaneously in the flank of 6-8 week old, athymic nude mice (Harlan, Indianapolis, Ind.) in a 1:1 mixture of serum-free growth medium and matrigel (Becton Dickinson, Bedford, Mass., catalogue # 354234). Mice are monitored daily for palpable tumors.
# (§3) When tumor volumes reach ˜50-100 mm^3, mice are randomized to treatment groups (Graff et al. (2007) J. Clin. Invest. 117:2638-48). Body weight is monitored each time tumors are measured.
# (§4) For treatment, all mice are injected intravenously with the eIF-4E ASO in saline in a total volume of 200 μl. The ASO consists of the nucleotide sequence 5′-[…]-3′ (SEQ ID NO:1), in which every internucleoside linkage is a phosphorothioate linkage, nucleotides 1-5 and 16-20 reading from the 5′ end to the 3′ end each comprise a 2′-O-(2-methoxyethyl) sugar, nucleotides 6-15 are 2′-deoxynucleotides, every cytosine residue is a 5-methylcytosine, and which is in the form of a sodium salt. The mice are first injected with an initial loading dose of 50 mg/kg ASO for 3 consecutive days, followed by 50 mg/kg thrice weekly thereafter.
# (§5) Taxotere® (docetaxel) dosing begins 8 days after the first ASO dose to allow time for reduction of eIF-4E protein expression. Mice are dosed with 2.5 or 10 mg/kg Taxotere® (Sanofi-Aventis) intraperitoneally (IP) in 1% ethanol in 5% dextrose water in a volume of 200 μl once weekly for 3 weeks.
# (§6) Tumor volumes are calculated measuring the largest (L) and smallest (W) diameters with a caliper. The formula is: Volume=L×W^2×0.534. Tumor volume data are transformed to a log scale to equalize variance across time and treatment groups. The log volume data are analyzed with a two-way repeated measures analysis of variance by time and treatment using SAS PROC MIXED software (SAS Institute Inc, Cary, N.C.) using the spatial power covariance structure. Treatment groups are compared to the control group at each time point and overall. The data may be plotted as means and standard errors for each treatment group versus time. Additivity is assessed in two ways: (1) as an overall interaction effect between the ASO and Taxotere® in the repeated measures analysis, and (2) by using the Bliss Independence method on the final day of the study (C. I. Bliss (1939) Ann. Appl. Biol. 26:585-615). These two methods yield the same results.
# (§7) The observed percent reductions in mean tumor volume at the conclusion of each study resulting from the various treatments are shown in Table 4. These are calculated as: […]
# (§8) The “Expected if Additive” percent reductions in mean tumor volume shown in Table 4 are calculated using the Bliss Independence definition of additivity, as follows: […]
# [2] = test system: PC-3 Hormone-Refractory Prostate Cancer Xenograft; test: PC-3 hormone-refractory prostate cancer xenograft tumor volume in mice; settings: for Mean Tumor Volume: ASO 50 mg/kg i.v., Taxotere 10 mg/kg IP once weekly, from 8 days after first ASO dose; for Percent Reduction in Mean Tumor Volumes (observed): Prostate PC3, Day 35, vs. vehicle control, negative = reduction, Taxotere 10 mg/kg
# Procedure: as §1, §2, §3, §4, §5, §6, §7, §8
# [3] = test system: MDA-231 Breast Cancer Xenograft; test: MDA-231 breast cancer xenograft tumor volume in mice; settings: for Percent Reduction in Mean Tumor Volumes (observed): Breast MDA-231, Day 33, vs. vehicle control, negative = reduction, + = increase, Taxotere 2.5 mg/kg; for Mean Tumor Volume: ASO 50 mg/kg i.v., Taxotere 2.5 mg/kg IP once weekly, from 8 days after first ASO dose
# Procedure: as §1, §2, §3, §4, §5, §6, §7, §8
Molecule,Mean Tumor Volume ([1]; Day 7),Mean Tumor Volume ([1]; Day 10),Mean Tumor Volume ([1]; Day 15),Mean Tumor Volume ([1]; Day 18),Mean Tumor Volume ([1]; Day 22),Mean Tumor Volume ([1]; Day 25),Mean Tumor Volume ([1]; Day 29),Mean Tumor Volume ([1]; Day 32),Mean Tumor Volume ([1]; Day 36),Mean Tumor Volume ([1]; Day 39),Mean Tumor Volume ([1]; Day 43),Mean Tumor Volume ([1]; Day 46),Mean Tumor Volume ([1]; Day 50),Percent Reduction in Mean Tumor Volumes (observed) [1],Mean Tumor Volume ([2]; Day 7),Mean Tumor Volume ([2]; Day 12),Mean Tumor Volume ([2]; Day 15),Mean Tumor Volume ([2]; Day 19),Mean Tumor Volume ([2]; Day 22),Mean Tumor Volume ([2]; Day 27),also measured
"CC(=O)O[C@@]12CO[C@@H]1C[C@H](O)[C@@]1(C)C(=O)[C@H](O)C3=C(C)[C@@H](OC(=O)[C@H](O)[C@@H](NC(=O)OC(C)(C)C)c4ccccc4)C[C@@](O)([C@@H](OC(=O)c4ccccc4)[C@H]21)C3(C)C [Docetaxel, (2R,3S)—N-carboxy-3-phenylisoserine,N-tert-butyl ester, 13-ester with 5β-20-epoxy-1,2α,4,7β,10β,13α-hexahydroxytax-11-en-9-one 4-acetate 2-benzoate, trihydrate, reference compound]",49.7 mm^3,56.7 mm^3,114.8 mm^3,70.0 mm^3,135.8 mm^3,170.1 mm^3,257.0 mm^3,261.5 mm^3,290.0 mm^3,282.3 mm^3,342.6 mm^3,310.2 mm^3,343.8 mm^3,−29.6%,46.3 mm^3,106.8 mm^3,134.7 mm^3,164.8 mm^3,171.7 mm^3,157.4 mm^3,Mean Tumor Volume ([2]; Day 29): 162.7 mm^3; Mean Tumor Volume ([2]; Day 33): 161.6 mm^3; Mean Tumor Volume ([2]; Day 35): 167.0 mm^3; Percent Reduction in Mean Tumor Volumes (observed) [2]: −69.5%*; Percent Reduction in Mean Tumor Volumes (observed) [3]: −1.4%; Mean Tumor Volume ([3]; Day 5): 78.7 mm^3; Mean Tumor Volume ([3]; Day 8): 130.1 mm^3; Mean Tumor Volume ([3]; Day 12): 180.9 mm^3; Mean Tumor Volume ([3]; Day 15): 221.0 mm^3; Mean Tumor Volume ([3]; Day 19): 270.3 mm^3; Mean Tumor Volume ([3]; Day 22): 333.9 mm^3; Mean Tumor Volume ([3]; Day 26): 384.9 mm^3; Mean Tumor Volume ([3]; Day 29): 450.4 mm^3; Mean Tumor Volume ([3]; Day 33): 529.6 mm^3
d(P-thio) ([2′-O-(2-methoxyethyl)] m5rU-([2′-O-(2-methoxyethyl)] rG-([2′-O-(2-methoxyethyl)] m5rU-([2′-O-(2-methoxyethyl)] m5rC-([2′-O-(2-methoxyethyl)] rA-T-A-T-T-m5C-m5C-T-G-G-A-([2′-O-(2-methoxyethyl)] m5rU-([2′-O-(2-methoxyethyl)] m5rC-([2′-O-(2-methoxyethyl)] m5rC-([2′-O-(2-methoxyethyl)] m5rU-([2′-O-(2-methoxyethyl)] m5rU) (antisense eT*eG*eT*e[5mC]*eA*dT*dA*dT*dT*d[5mC]*d[5mC]*dT*dG*dG*dA*eT*e[5mC]*e[5mC]*eT*eT) [eIF-4E ASO],52.7 mm^3,69.4 mm^3,113.7 mm^3,79.1 mm^3,139.5 mm^3,149.0 mm^3,220.1 mm^3,249.5 mm^3,256.6 mm^3,239.1 mm^3,313.2 mm^3,292.3 mm^3,404.0 mm^3,−17.3%,49.8 mm^3,88.3 mm^3,130.3 mm^3,159.0 mm^3,218.8 mm^3,294.5 mm^3,"Mean Tumor Volume ([2]; Day 29): 343.9 mm^3; Mean Tumor Volume ([2]; Day 33): 424.0 mm^3; Mean Tumor Volume ([2]; Day 35): 491.2 mm^3; Percent Reduction in Mean Tumor Volumes (observed) [2]: −10.2%; Percent Reduction in Mean Tumor Volumes (observed) [3]: +16.6%; Mean Tumor Volume ([3]; Day 5): 78.9 mm^3; Mean Tumor Volume ([3]; Day 8): 129.4 mm^3; Mean Tumor Volume ([3]; Day 12): 166.6 mm^3; Mean Tumor Volume ([3]; Day 15): 221.0 mm^3; Mean Tumor Volume ([3]; Day 19): 268.2 mm^3; Mean Tumor Volume ([3]; Day 22): 356.3 mm^3; Mean Tumor Volume ([3]; Day 26): 435.9 mm^3; Mean Tumor Volume ([3]; Day 29): 574.1 mm^3; Mean Tumor Volume ([3]; Day 33): 626.2 mm^3; Effect on mean tumor volume (in words) ([3]; breast cancer model, ASO alone): non-statistically significant increase in mean tumor volume"
